Reference: PubChem BioAssay AID2060496 (Molecular Pharmacology Branch, DTP, NCI, 2025)

Test system: 276233-004-R-J1-PDC complex spheroid viability
Test: Anticancer human tumor 276233-004-R-J1-PDC patient-derived colon adenocarcinoma cell line growth inhibition [GQUAD]
Settings: for IC50: curve of first compound; for viability, T/C: stronger effect = lower value
Procedure, shortened: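 Multi-cell-type spheroids of tumor cells with HUVEC and mesenchymal stem cells, treated with drug combinations. Concentrations descend in half-log steps from near clinical Cmax, or from 10 microM where Cmax is unknown; viability read-out.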

[1] = second compound 0.0316 µM, first compound 0.0316 µM
[2] = second compound 0.0316 µM, first compound 0.1 µM
[3] = second compound 0.0316 µM, first compound 0.316 µM
[4] = second compound 0.0316 µM, first compound 1 µM
[5] = second compound 0.0316 µM, first compound 3.16 µM
[6] = second compound 0.0316 µM, first compound 10 µM
[7] = second compound 0.1 µM, first compound 0.0316 µM
[8] = second compound 0.1 µM, first compound 0.1 µM
[9] = second compound 0.1 µM, first compound 0.316 µM
[10] = second compound 0.1 µM, first compound 1 µM
[11] = second compound 0.1 µM, first compound 3.16 µM
[12] = second compound 0.1 µM, first compound 10 µM
[13] = second compound 0.316 µM, first compound 0.0316 µM
[14] = second compound 0.316 µM, first compound 0.1 µM
[15] = second compound 0.316 µM, first compound 0.316 µM
[16] = second compound 0.316 µM, first compound 1 µM
[17] = second compound 0.316 µM, first compound 3.16 µM
[18] = second compound 0.316 µM, first compound 10 µM
[19] = second compound 1 µM, first compound 0.0316 µM
[20] = second compound 1 µM, first compound 0.1 µM
[21] = second compound 1 µM, first compound 0.316 µM
[22] = second compound 1 µM, first compound 1 µM
[23] = second compound 1 µM, first compound 3.16 µM
[24] = second compound 1 µM, first compound 10 µM
[25] = second compound 3.16 µM, first compound 0.0316 µM
[26] = second compound 3.16 µM, first compound 0.1 µM
[27] = second compound 3.16 µM, first compound 0.316 µM
[28] = second compound 3.16 µM, first compound 1 µM
[29] = second compound 3.16 µM, first compound 3.16 µM
[30] = second compound 3.16 µM, first compound 10 µM
[31] = second compound 10 µM, first compound 0.0316 µM
[32] = second compound 10 µM, first compound 0.1 µM
[33] = second compound 10 µM, first compound 0.316 µM
[34] = second compound 10 µM, first compound 1 µM
[35] = second compound 10 µM, first compound 3.16 µM
[36] = second compound 10 µM, first compound 10 µM
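Also: spheroids exposed to drugs for seven days.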
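For viability, T/C in this document: 100% = DMSO vehicle control viability.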

C=CCn1c(=O)c2cnc(Nc3ccc(N4CCN(C)CC4)cc3)nc2n1-c1cccc(C(C)(C)O)n1 + Cc1cnc(CNC(=O)c2c(=O)c3ccc(N4CCCN(C)CC4)nc3n3c2sc2ccccc23)cn1
IC50 (second compound 0.0316 µM): > 10 µM | IC50 (second compound 0.1 µM): > 10 µM | IC50 (second compound 0.316 µM): > 10 µM | IC50 (second compound 1 µM): > 10 µM | IC50 (second compound 3.16 µM): > 10 µM | IC50 (second compound 10 µM): 8.24 µM | viability, T/C [1]: 93.4% | viability, T/C [2]: 70.5% | viability, T/C [3]: 64.3% | viability, T/C [4]: 65.9% | viability, T/C [5]: 69.1% | viability, T/C [6]: 78% | viability, T/C [7]: 75.9% | viability, T/C [8]: 86% | viability, T/C [9]: 80.2% | viability, T/C [10]: 72.2% | viability, T/C [11]: 73.1% | viability, T/C [12]: 67.8% | viability, T/C [13]: 89.8% | viability, T/C [14]: 82.1% | viability, T/C [15]: 76% | viability, T/C [16]: 61.3% | viability, T/C [17]: 66% | viability, T/C [18]: 61.9% | viability, T/C [19]: 76.1% | viability, T/C [20]: 83% | viability, T/C [21]: 76.5% | viability, T/C [22]: 67.9% | viability, T/C [23]: 62% | viability, T/C [24]: 62.4% | viability, T/C [25]: 76.5% | viability, T/C [26]: 71.5% | viability, T/C [27]: 59.6% | viability, T/C [28]: 55.4% | viability, T/C [29]: 52.5% | viability, T/C [30]: 58% | viability, T/C [31]: 57.8% | viability, T/C [32]: 66.1% | viability, T/C [33]: 65.6% | viability, T/C [34]: 54.9% | viability, T/C [35]: 58.6% | viability, T/C [36]: 48.4%

C#Cc1c(F)ccc2cc(O)cc(-c3ncc4c(N5CC6CCC(C5)N6)nc(OCC56CCCN5CC(F)C6)nc4c3F)c12 (centres undefined) + Cc1[nH]c2ccc(F)cc2c1-c1nc2c3cccnc3c3ncccc3c2[nH]1
IC50 (second compound 0.0316 µM): > 10 µM | IC50 (second compound 0.1 µM): 2.5 µM | IC50 (second compound 0.316 µM): 1.13 µM | IC50 (second compound 1 µM): 0.208 µM | IC50 (second compound 3.16 µM): < 0.0316 µM | IC50 (second compound 10 µM): < 0.0316 µM | viability, T/C [1]: 89% | viability, T/C [2]: 85.2% | viability, T/C [3]: 89.2% | viability, T/C [4]: 71.7% | viability, T/C [5]: 57.2% | viability, T/C [6]: 51.2% | viability, T/C [7]: 80.2% | viability, T/C [8]: 80.3% | viability, T/C [9]: 82.5% | viability, T/C [10]: 73.8% | viability, T/C [11]: 44% | viability, T/C [12]: 34.1% | viability, T/C [13]: 68.4% | viability, T/C [14]: 67.4% | viability, T/C [15]: 57% | viability, T/C [16]: 56% | viability, T/C [17]: 33.8% | viability, T/C [18]: 27.4% | viability, T/C [19]: 70.3% | viability, T/C [20]: 48.7% | viability, T/C [21]: 48.7% | viability, T/C [22]: 39.7% | viability, T/C [23]: 40% | viability, T/C [24]: 26.2% | viability, T/C [25]: 19.1% | viability, T/C [26]: 14.9% | viability, T/C [27]: 12.7% | viability, T/C [28]: 13.6% | viability, T/C [29]: 9.51% | viability, T/C [30]: 17.4% | viability, T/C [31]: 35.7% | viability, T/C [32]: 41.8% | viability, T/C [33]: 35.7% | viability, T/C [34]: 34.2% | viability, T/C [35]: 28.1% | viability, T/C [36]: 15.6%
